Reference: article PMC11532980, “Solvation free energy in governing equations for DNA hybridization, protein–ligand binding, and protein folding” (FEBS Open Bio, 2024)

Molecular target: T1, ribonuclease A (RNase A) (Bos taurus, UniProt P61823)
T1 construct: gene RNASE1; native enzyme from bovine pancreas, commercial; mature secreted protein (signal peptide removed), no tag
T1 sequence (P61823 27-150): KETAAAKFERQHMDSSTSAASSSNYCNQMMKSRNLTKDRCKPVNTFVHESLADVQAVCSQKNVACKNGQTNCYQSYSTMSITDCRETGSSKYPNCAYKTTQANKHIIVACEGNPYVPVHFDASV
Experiment: isothermal titration calorimetry
Assay type: binding
Conditions: 25 mM Bis-Tris, 25 mM KCl, pH 6.0, 25 °C; K per RNase A concentration (five concentrations, up to 0.6 mM); ligand from disodium salt; y-intercept of −RTlnK versus complex concentration (extrapolated t)

ΔG°: -6.46 ± 0.03 kcal/mol
Structure (SMILES): O=c1ccn([C@@H]2O[C@H](CO)[C@@H](OP(=O)(O)O)[C@H]2O)c(=O)[nH]1 [3′‐UMP]
